Experiments:
[1] = for viscosity / speed of sound / mass density: 101.33 kPa, Liquid; for viscosity: Capillary tube (Ostwald / Ubbelohde) method; for speed of sound: Pulse-echo method; for mass density: Vibrating tube method; for Normal melting temperature: Crystal, DTA
[2] = refractive index (Na D-line) (dimensionless); details: 101.33 kPa, Liquid, Standard Abbe refractometry

CC[N+](C)(CC)CC.COS(=O)(=O)[O-] [N,N-diethyl-N-methylethanaminium methyl sulfate]
Details | mass density, [1] [kg/m3] | refractive index, [2] | speed of sound, [1] [m/s] | viscosity, [1] [mPa·s]
308.15 K | 1166.44 | 1.46191 | 1853.5 | 218.5
313.15 K | 1163.4 | 1.46065 | 1839.7 | 165.6
318.15 K | 1160.36 | 1.45939 | 1826.3 | 127.7
323.15 K | 1157.34 | 1.45812 | 1813.1 | 100.3
328.15 K | 1154.32 | 1.45687 | 1800 | 79.7
333.15 K | 1151.33 | 1.45561 | 1787.1 | 64
338.15 K | 1148.34 | 1.45402 | 1774.2 | 53.42
343.15 K | 1145.36 | 1.45283 | 1761.5 | 44.92

Details | Normal melting temperature [°C]
[1] | 33

CCCC[N+]1(C)CCCC1.COS(=O)(=O)[O-] [1-butyl-1-methylpyrrolidinium methyl sulfate]
Details | mass density, [1] [kg/m3] | refractive index, [2] | speed of sound, [1] [m/s] | viscosity, [1] [mPa·s]
298.15 K | 1166.69 | 1.47308 | 1741.6 | 467.5
303.15 K | 1163.58 | 1.47184 | 1727.3 | 334.9
308.15 K | 1160.46 | 1.47054 | 1713.6 | 245.6
313.15 K | 1157.4 | 1.46924 | 1700.3 | 184.1
318.15 K | 1154.4 | 1.46792 | 1687.4 | 139.2
323.15 K | 1151.42 | 1.46661 | 1674.7 | 107.8
328.15 K | 1148.42 | 1.46536 | 1662.2 | 86.1
333.15 K | 1145.42 | 1.46406 | 1649.8 | 69.2
338.15 K | 1142.44 | 1.46274 | 1637.6 | 56.4
343.15 K | 1139.47 | 1.46143 | 1625.5 | 46.6

CCOS(=O)(=O)[O-].CC[N+]1(C)CCCC1 [1-ethyl-1-methylpyrrolidinium ethyl sulfate]
Details | mass density, [1] [kg/m3] | refractive index, [2] | speed of sound, [1] [m/s] | viscosity, [1] [mPa·s]
308.15 K | 1189.67 | 1.47021 | 1750.2 | 172
313.15 K | 1186.53 | 1.46891 | 1737.5 | 134.9
318.15 K | 1183.41 | 1.4676 | 1725.2 | 107.5
323.15 K | 1180.3 | 1.46632 | 1713 | 86.8
328.15 K | 1177.22 | 1.46506 | 1701 | 71.2
333.15 K | 1174.15 | 1.46378 | 1689.2 | 59.1
338.15 K | 1171.11 | 1.46246 | 1677.3 | 49.5
343.15 K | 1168.07 | 1.46116 | 1665.7 | 42

Details | Normal melting temperature [°C]
[1] | 33

CCCC[N+]1(CC)CCCC1.CCOS(=O)(=O)[O-] [1-butyl-1-ethylpyrrolidinium ethyl sulfate]
Details | mass density, [1] [kg/m3] | refractive index, [2] | speed of sound, [1] [m/s] | viscosity, [1] [mPa·s]
328.15 K | 1118.72 | 1.4671 | 1602 | 105.5
333.15 K | 1115.98 | 1.46581 | 1589.6 | 82.9
338.15 K | 1113.02 | 1.46454 | 1577.2 | 66.8
343.15 K | 1110.08 | 1.46315 | 1564.9 | 55.8

Details | Normal melting temperature [°C]
[1] | 53
